Laboratory results as given in US20190014793A1, “METHOD OF PROVIDING NUTRITION TO INFANTS” (ABBOTT LABORATORIES, priority 2011, published 2019).

How the values were obtained:
[1] = Amino acid solubility considerations (estimated concentration v. solubility limit); type: physicochemical; conditions: % of solubility limit at 25° C.
[2] = Merck Index, 11th Ed.; cited from earlier work

SMILES	Sterile liquid protein concentration, % of limit [1] [%]	Solubility limit of free amino acid, 25° C. [2] [mg/mL]
N[C@@H](Cc1ccc(O)cc1)C(=O)O [Tyr, L-tyrosine]	400	
CC(C)[C@H](N)C(=O)O [Val, Valine]	13	88.5
CC[C@H](C)[C@H](N)C(=O)O [Ile, Isoleucine]	22	41.2
CC(C)C[C@H](N)C(=O)O [Leu, Leucine]	67	24.26
N[C@@H](Cc1ccccc1)C(=O)O [Phe, L-phenylalanine]	27	29.6
